According to the supplement of paper PMC10307832:

How the values were obtained:
BGJ398 + Tozasertib = compound: CCN1CCN(c2ccc(Nc3cc(N(C)C(=O)Nc4c(Cl)c(OC)cc(OC)c4Cl)ncn3)cc2)CC1 [BGJ398] + Cc1cc(Nc2cc(N3CCN(C)CC3)nc(Sc3ccc(NC(=O)C4CC4)cc3)n2)n[nH]1 [Tozasertib] (partner 0.1 µM); assay: relative viability (nuclei count vs DMSO), 5 days (fraction); higher = more cells survive
How it was run: (§1)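 Values are medians from duplicate plates. Each reflects relative viability, defined as the nuclei count of treated wells over that of vehicle wells. Lung cancer cell lines in 1536-well plates were pin-tool dosed one day after seeding with one drug alone or with a fixed anchor-drug dose plus five library-drug doses (not always all listed) in √10 steps, then fixed, stained and imaged at 4× after 5 days.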

[1] = compound: C1=CC2=NC=CN=C2C=C1/C=C/3\C(=O)NC(=O)S3 + COc1cc2c(Oc3ccc(NC(=O)C4(C(=O)Nc5ccc(F)cc5)CC4)cc3F)ccnc2cc1OCCCN1CCOCC1 [Foretinib] (partner 0.25 µM); assay: as above
How it was run: as §1

| Cell Line | relative viability (BGJ398 + Tozasertib; first compound 0.01 µM) | relative viability (BGJ398 + Tozasertib; first compound 0.03162 µM) | relative viability (BGJ398 + Tozasertib; first compound 0.1 µM) | relative viability (BGJ398 + Tozasertib; first compound 0.3162 µM) | relative viability (BGJ398 + Tozasertib; first compound 1 µM) | relative viability ([1]; first compound 0.02 µM) | relative viability ([1]; first compound 0.06325 µM) | relative viability ([1]; first compound 0.2 µM) | relative viability ([1]; first compound 0.6325 µM) | relative viability ([1]; first compound 2 µM) |
| --- | --- | --- | --- | --- | --- | --- | --- | --- | --- | --- |
| NCI-H1648 | 0.304 | 0.58 | 0.469 | 0.399 | 0.44 |  |  |  |  |  |
| LCLC-97TM1 | 0.239 | 0.224 | 0.293 | 0.23 | 0.35 | 0.919 | 0.908 | 0.908 | 0.996 | 0.688 |
| NCI-H596 | 0.777 | 0.856 | 0.775 | 0.744 | 0.731 | 0.856 | 0.863 | 1.05 | 0.742 | 0.899 |
| NCI-H727 | 0.574 | 0.751 | 0.816 | 0.585 | 0.605 | 0.954 | 0.852 | 1.04 | 0.853 | 0.588 |
| H3255 | 0.628 |  | 0.472 | 0.743 | 0.608 | 0.786 | 0.968 | 0.881 | 0.899 | 0.965 |
| SK-MES-1 | 0.87 | 0.892 | 0.829 | 0.785 | 0.857 | 0.875 | 1.05 | 0.976 | 0.804 | 0.669 |
| NCI-H1437 | 0.414 | 0.418 | 0.418 | 0.4 | 0.427 | 1.19 | 1.24 | 1.16 | 1.25 | 1.15 |
| NCI-H2342 | 0.415 | 0.49 | 0.655 | 0.536 | 0.505 | 0.891 | 0.93 | 1.02 | 0.953 | 0.891 |
| LU99A | 0.286 | 0.282 | 0.261 | 0.197 | 0.265 | 0.727 | 0.743 | 0.792 | 0.822 | 0.614 |
| SW 900 | 0.55 | 0.552 | 0.495 | 0.484 | 0.429 | 0.703 | 0.823 | 0.77 | 1.06 | 0.797 |
| HCC-827 | 0.325 |  | 0.441 | 0.363 | 0.401 | 1.09 | 1.05 | 1.02 | 0.95 | 1.04 |
| LK-2 | 0.202 | 0.168 | 0.157 | 0.149 | 0.173 | 1.06 | 1.16 | 1.26 | 1.03 | 0.789 |
| HCC-366 | 0.128 | 0.111 | 0.092 | 0.0966 | 0.0852 | 0.916 |  | 0.863 | 0.901 | 0.985 |
| BEN | 0.587 | 0.488 | 0.543 | 0.513 | 0.527 | 0.787 | 0.869 | 0.693 | 0.666 | 0.473 |
| NCI-H23 | 0.387 | 0.339 | 0.335 | 0.36 | 0.304 | 1.12 | 0.976 | 1.02 | 0.902 | 0.856 |
| NCI-H1395 | 0.739 | 0.789 | 0.72 | 0.624 | 0.511 | 1.04 | 1.03 | 1 | 0.871 | 1.03 |
| A549 |  |  |  |  |  | 0.965 | 1.05 | 0.889 | 0.835 | 0.984 |
| NCI-H1563 |  |  |  |  |  | 0.901 | 0.979 | 0.914 | 0.895 | 0.943 |
